Experimental data reported in ChEMBL document CHEMBL1147234, “Bioassay-guided isolation of epiquinamide, a novel quinolizidine alkaloid and nicotinic agonist from an Ecuadoran poison frog, Epipedobates tricolor” (J Nat Prod, 2003).

Columns and labels:
Assay type in all cases: functional
[1] = target: Neuronal acetylcholine receptor; alpha4/beta2 (Homo sapiens) (UniProt P17787+P43681); assay: Agonist activity at human nicotinic alpha4beta2 receptor expressed in human K177 cells at 50 uM by cell based membrane potential assay relative to (+/-)-epibatidine
[2] = target: Neuronal acetylcholine receptor; alpha3/beta4 (Homo sapiens) (UniProt P30926+P32297); assay: Agonist activity at human nicotinic alpha3beta4 receptor expressed in human IMR32 cells at 50 uM by cell based membrane potential assay relative to (+/-)-epibatidine; details: IMR-32
[3] = target: Neuronal acetylcholine receptor; alpha3/beta4 (Rattus norvegicus) (UniProt P04757+P12392); assay: Agonist activity at rat nicotinic alpha3beta4 receptor expressed in human KXalpha-3-beta-4R2 cells at 50 uM by cell based membrane potential assay relative to (+/-)-epibatidine
[4] = target: Neuronal acetylcholine receptor; alpha3/beta2 (Homo sapiens) (UniProt P17787+P32297); assay: Agonist activity at human nicotinic alpha3beta2 receptor expressed in human SH-SY5Y cells at 50 uM by cell based membrane potential assay relative to (+/-)-epibatidine
[5] = target: Acetylcholine receptor; alpha1/beta1/delta/gamma (Homo sapiens) (UniProt P02708+P07510+P11230+Q07001); assay: Agonist activity at human nicotinic alpha-1-beta-1-gamma-delta receptor expressed in human TE-671 cells at 50 uM by cell based membrane potential assay relative to (+/-)-epibatidine

With `CC(=O)N[C@@H]1CCCN2CCCC[C@H]12` (relative stereo) the Activity [1] was 58%, the Activity [2] was 15% and the Activity [3] was 23%. For the same molecule, the Activity [4] was 51% and the Activity [5] was 8%.
